Data from ChEMBL document CHEMBL1201862, “PubChem BioAssay data set” (2004).
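Results reflect a 48-hour exposure of cells in 96-well plates to compound at five concentrations. At the GI50, growth is halved.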 Activity calls are given as the source filed them. Rule as the data show it: active = GI50 up to about 1.1 µM and inactive = higher.

Experiments:
Test in all cases: NCI anticancer screen, dose series, 48 h
[1] = tested on: SNB-19
[2] = tested on: HOP-92
[3] = tested on: SNB-75
[4] = tested on: HL-60
[5] = tested on: K562
[6] = tested on: HCT-15
[7] = tested on: SW-620
[8] = tested on: NCI-H460
[9] = tested on: A549
[10] = tested on: COLO 205
[11] = tested on: KM-20L2
[12] = tested on: SR
[13] = tested on: CAKI-1
[14] = tested on: HCC 2998
[15] = tested on: SF-268
[16] = tested on: 786-0
[17] = tested on: MCF7
[18] = tested on: NCI/ADR-RES

Row | Compound | GI50 [1] | GI50 [2] | GI50 [3] | GI50 [4] | GI50 [5] | GI50 [6] | GI50 [7] | GI50 [8] | GI50 [9] | GI50 [10] | GI50 [11] | GI50 [12] | GI50 [13] | GI50 [14] | GI50 [15] | GI50 [16] | GI50 [17] | GI50 [18]
1 | CCOc1ccc(NC(=O)C(=O)CC(=O)c2sc(NNC(C)=O)nc2C)cc1 | > 100 µM (inactive) | > 100 µM (inactive) | > 100 µM (inactive) | > 100 µM (inactive) | > 100 µM (inactive) | > 100 µM | > 100 µM (inactive) | > 100 µM (inactive) | > 100 µM (inactive) | > 100 µM (inactive) | > 100 µM (inactive) | > 100 µM (inactive) | > 100 µM (inactive) | > 100 µM (inactive) | > 100 µM (inactive) | – | – | –
2 | C/C(=N/NC(N)=S)c1ccc2ccccc2c1 | 83.2 µM (inactive) | > 100 µM (inactive) | 25.9 µM (inactive) | 15 µM (inactive) | – | 22.2 µM | 33.3 µM (inactive) | 24.2 µM (inactive) | 24.4 µM (inactive) | 21.4 µM (inactive) | 23.7 µM (inactive) | 74.5 µM (inactive) | – | 16 µM (inactive) | 23.3 µM (inactive) | – | – | –
3 | O=C(Nc1ccc(Sc2ccc(/N=N/c3c(O)c(S(=O)(=O)O)cc4cc(S(=O)(=O)O)ccc34)cc2)cc1)c1ccc(/N=N/c2c(O)c(S(=O)(=O)O)cc3cc(S(=O)(=O)O)ccc23)cc1 | 48.3 µM (inactive) | 30.5 µM (inactive) | > 100 µM (inactive) | 6.97 µM (inactive) | 19.4 µM (inactive) | 14.9 µM | 28.3 µM (inactive) | 14.5 µM (inactive) | 26.7 µM (inactive) | 15.9 µM (inactive) | 63.5 µM (inactive) | 10.9 µM (inactive) | 37.4 µM (inactive) | > 100 µM (inactive) | 38.7 µM (inactive) | 43.6 µM (inactive) | – | –
4 | CSc1nsc(-c2ccccc2)[s+]1.[O-][Cl+3]([O-])([O-])[O-] | > 100 µM (inactive) | – | > 100 µM (inactive) | 72.1 µM (inactive) | 64.1 µM (inactive) | > 100 µM | > 100 µM (inactive) | > 100 µM (inactive) | > 100 µM (inactive) | > 100 µM (inactive) | > 100 µM (inactive) | > 100 µM (inactive) | > 100 µM (inactive) | > 100 µM (inactive) | > 100 µM (inactive) | > 100 µM (inactive) | – | –
5 | CC(=O)OCc1nnn2c1CCC2 | – | > 100 µM (inactive) | > 100 µM (inactive) | > 100 µM (inactive) | > 100 µM (inactive) | > 100 µM | > 100 µM (inactive) | > 100 µM (inactive) | > 100 µM (inactive) | – | > 100 µM (inactive) | > 100 µM (inactive) | – | > 100 µM (inactive) | – | – | – | –
6 | Oc1ccc(C2Oc3cc(O)cc4c3C2c2cc(O)cc3c2C(c2cc(O)cc5c2C4C(c2ccc(O)cc2)O5)C(c2ccc(O)cc2)O3)cc1 (stereo not given) | 4.78 µM (inactive) | 3.94 µM (inactive) | 3.19 µM (inactive) | 0.834 µM (active) | 7 µM (inactive) | > 25 µM | 7.73 µM (inactive) | 12.6 µM (inactive) | > 25 µM (inactive) | > 25 µM (inactive) | 13.2 µM (inactive) | 6.35 µM (inactive) | > 25 µM (inactive) | 8.15 µM (inactive) | 5.12 µM (inactive) | 14.2 µM (inactive) | – | –
7 | COC(=O)C(Cc1cc(OC)c(OC)c(OC)c1)C(=O)OC | – | > 320 µM (inactive) | – | > 320 µM (inactive) | > 320 µM (inactive) | > 320 µM | > 320 µM (inactive) | > 320 µM (inactive) | > 320 µM (inactive) | > 320 µM (inactive) | > 320 µM (inactive) | > 320 µM (inactive) | > 320 µM (inactive) | > 320 µM (inactive) | > 320 µM (inactive) | > 320 µM (inactive) | – | –
8 | COc1ccc(-c2cc3[nH]nc(N)c3c(=O)o2)cc1 | > 100 µM (inactive) | > 100 µM (inactive) | 97.3 µM (inactive) | 90.4 µM (inactive) | > 100 µM (inactive) | > 100 µM | > 100 µM (inactive) | > 100 µM (inactive) | > 100 µM (inactive) | > 100 µM (inactive) | > 100 µM (inactive) | > 100 µM (inactive) | 73.6 µM (inactive) | > 100 µM (inactive) | 81.3 µM (inactive) | – | – | –
9 | COC(=O)CC1(O)C(=O)OCc2c1cc1n(c2=O)Cc2c-1nc1ccccc1c2OC (stereo not given) | 0.6 µM (active) | 12.3 µM (inactive) | 0.232 µM (active) | 0.0959 µM (active) | 0.918 µM (active) | 4.61 µM | 0.515 µM (active) | 0.0185 µM (active) | 0.238 µM (active) | 3.77 µM (inactive) | 1.95 µM (inactive) | < 0.01 µM (active) | 0.0673 µM (active) | 3.71 µM (inactive) | 0.133 µM (active) | 0.136 µM (active) | – | –
10 | Cc1cc(N(CCC#N)CCC#N)ccc1/C=C1N=C(/C=C\c2ccccc2)OC\1=O | > 100 µM (inactive) | > 100 µM (inactive) | > 100 µM (inactive) | > 100 µM (inactive) | > 100 µM (inactive) | > 100 µM | > 100 µM (inactive) | > 100 µM (inactive) | > 100 µM (inactive) | > 100 µM (inactive) | > 100 µM (inactive) | 30.3 µM (inactive) | > 100 µM (inactive) | > 100 µM (inactive) | > 100 µM (inactive) | > 100 µM (inactive) | – | –
11 | O=C(N/C(=C\c1cc(Cl)ccc1Cl)c1nc2c(O)nc(S)nc2[nH]1)c1ccccc1 | > 55.2 µM (inactive) | > 44.6 µM (inactive) | 34.2 µM (inactive) | 4.82 µM (inactive) | 7.43 µM (inactive) | 17.2 µM | 13.7 µM (inactive) | 34.5 µM (inactive) | 98.6 µM (inactive) | 37.4 µM (inactive) | 41.4 µM (inactive) | 25.5 µM (inactive) | 38.5 µM (inactive) | 16.4 µM (inactive) | 33.4 µM (inactive) | 17.5 µM (inactive) | – | –
12 | COC1OC2=CCC3C(=O)NC(=O)C3C2[C@H](OCc2ccccc2)C1OCc1ccccc1 (stereo not given in full) | – | 1.63 µM (inactive) | 17.3 µM (inactive) | 1.79 µM (inactive) | 1.82 µM (inactive) | 1.93 µM | 1.49 µM (inactive) | 17.9 µM (inactive) | 18.9 µM (inactive) | – | 2.25 µM (inactive) | 2.1 µM (inactive) | – | 3.74 µM (inactive) | – | – | – | –
13 | C=C(C)C(=O)OC1CCC2(C)C(CCC3C2CCC2(C)C(c4ccc(=O)oc4)CC4OC432)C1 (stereo not given) | 18.5 µM (inactive) | 0.804 µM (active) | 7.38 µM (inactive) | 0.57 µM (active) | 2.69 µM (inactive) | 6.78 µM | 6.34 µM (inactive) | 1.25 µM (inactive) | 2.31 µM (inactive) | 8.18 µM (inactive) | 6.92 µM (inactive) | – | 4.07 µM (inactive) | 5.19 µM (inactive) | 5.31 µM (inactive) | – | 2.48 µM (inactive) | 6.46 µM (inactive)
